Experimental data published in ChEMBL document CHEMBL1667756, “Design, synthesis and antibacterial activity of 3-methylenepyrrolidine formyl hydroxyamino derivatives as novel peptide deformylase inhibitors” (2011).
Converted amounts (≈) assume the structure as drawn.

Tests used:
Type in all cases: functional
[1] = tested on: Staphylococcus aureus; test: Antibacterial activity against Staphylococcus aureus ATCC 25923 by broth micro dilution technique
[2] = tested on: Staphylococcus aureus; test: Antibacterial activity against methicillin-susceptible Staphylococcus aureus ATCC 29213 by broth micro dilution technique
[3] = tested on: Staphylococcus aureus; test: Antibacterial activity against methicillin-resistant Staphylococcus aureus ATCC 43300 by broth micro dilution technique
[4] = tested on: Staphylococcus epidermidis; test: Antibacterial activity against methicillin-resistant Staphylococcus epidermidis ATCC 12228 by broth micro dilution technique
[5] = tested on: Staphylococcus aureus; test: Antibacterial activity against methicillin-susceptible Staphylococcus aureus by agar dilution method
[6] = tested on: Staphylococcus aureus; test: Antibacterial activity against methicillin-resistant Staphylococcus aureus by agar dilution method
[7] = tested on: Staphylococcus epidermidis; test: Antibacterial activity against methicillin-susceptible Staphylococcus epidermidis by agar dilution method
[8] = tested on: Staphylococcus epidermidis; test: Antibacterial activity against methicillin-resistant Staphylococcus epidermidis by agar dilution method
[9] = tested on: Streptococcus pneumoniae; test: Antibacterial activity against penicillin-susceptible Streptococcus pneumoniae by agar dilution method
[10] = tested on: Streptococcus pneumoniae; test: Antibacterial activity against penicillin-resistant Streptococcus pneumoniae by agar dilution method
[11] = tested on: Haemophilus influenzae; test: Antibacterial activity against Haemophilus influenzae by agar dilution method
[12] = tested on: Staphylococcus aureus; test: Antibacterial activity against Staphylococcus aureus OXFORD by broth micro dilution technique
[13] = tested on: Staphylococcus aureus; test: Antibacterial activity against Staphylococcus aureus WCUH29 by broth micro dilution technique
[14] = tested on: Enterococcus faecalis; test: Antibacterial activity against Enterococcus faecalis by broth micro dilution technique
[15] = tested on: Enterococcus faecium; test: Antibacterial activity against Enterococcus faecium X7501 by broth micro dilution technique
[16] = tested on: Haemophilus influenzae; test: Antibacterial activity against Haemophilus influenzae Q1 by broth micro dilution technique
[17] = tested on: Haemophilus influenzae; test: Antibacterial activity against Haemophilus influenzae H128 by broth micro dilution technique
[18] = tested on: Haemophilus influenzae; test: Antibacterial activity against AcrA deficient Haemophilus influenzae H128 by broth micro dilution technique
[19] = tested on: Moraxella catarrhalis; test: Antibacterial activity against Moraxella catarrhalis 1502 by broth micro dilution technique
[20] = tested on: Streptococcus pneumoniae; test: Antibacterial activity against Streptococcus pneumoniae 1629 by broth micro dilution technique
[21] = tested on: Streptococcus pneumoniae; test: Antibacterial activity against Streptococcus pneumoniae N1387 by broth micro dilution technique
[22] = tested on: Streptococcus pneumoniae; test: Antibacterial activity against Streptococcus pneumoniae ERY2 by broth micro dilution technique
[23] = tested on: Escherichia coli; test: Antibacterial activity against Escherichia coli by broth micro dilution technique
[24] = tested on: Streptococcus pyogenes; test: Antibacterial activity against Streptococcus pyogenes 1307006P by broth micro dilution technique
[25] = tested on: Streptococcus pyogenes; test: Antibacterial activity against Streptococcus pyogenes 1308007P by broth micro dilution technique

C=C1C[C@@H](C(=O)Nc2ccc(F)c[n+]2[O-])N(C(=O)[C@H](CC2CCCC2)CN(O)C=O)C1
MIC [1]: 0.125 µg/mL (≈ 0.288 µM)
MIC [2]: 2 µg/mL (≈ 4.6 µM)
MIC [3]: 0.125 µg/mL (≈ 0.288 µM)
MIC [4]: 0.5 µg/mL (≈ 1.15 µM)
MIC [5]: 0.5 µg/mL (≈ 1.15 µM)
MIC [6]: 0.125 µg/mL (≈ 0.288 µM)
MIC [7]: 0.125 µg/mL (≈ 0.288 µM)
MIC [8]: 0.25 µg/mL (≈ 0.575 µM)
MIC [9]: 0.25 µg/mL (≈ 0.575 µM)
MIC [10]: 0.0625 µg/mL (≈ 0.144 µM)
MIC [11]: 2 µg/mL (≈ 4.6 µM)

C=C1C[C@@H](C(=O)Nc2ccccc2)N(C(=O)[C@H](CC2CCCC2)CN(O)C=O)C1
MIC [1]: 0.5 µg/mL (≈ 1.25 µM)
MIC [2]: 1 µg/mL (≈ 2.5 µM)
MIC [3]: 0.25 µg/mL (≈ 0.626 µM)
MIC [4]: 0.5 µg/mL (≈ 1.25 µM)

C=C1C[C@@H](C(=O)Nc2ccc(O)cc2)N(C(=O)[C@H](CCCC)CN(O)C=O)C1
MIC [1]: 8 µg/mL (≈ 20.5 µM)
MIC [2]: 32 µg/mL (≈ 82.2 µM)
MIC [3]: 4 µg/mL (≈ 10.3 µM)
MIC [4]: 8 µg/mL (≈ 20.5 µM)

C=C1C[C@@H](C(=O)Nc2ccc(F)cn2)N(C(=O)[C@H](CC2CCCC2)CN(O)C=O)C1
MIC [1]: 0.5 µg/mL (≈ 1.19 µM)
MIC [2]: 1 µg/mL (≈ 2.39 µM)
MIC [3]: 0.0625 µg/mL (≈ 0.149 µM)
MIC [4]: 0.125 µg/mL (≈ 0.299 µM)
MIC [5]: 0.5 µg/mL (≈ 1.19 µM)
MIC [6]: 0.25 µg/mL (≈ 0.597 µM)
MIC [7]: 0.5 µg/mL (≈ 1.19 µM)
MIC [8]: 0.5 µg/mL (≈ 1.19 µM)
MIC [9]: 0.25 µg/mL (≈ 0.597 µM)
MIC [10]: 0.25 µg/mL (≈ 0.597 µM)
MIC [11]: 2 µg/mL (≈ 4.78 µM)

C=C1C[C@@H](C(=O)N2CCOCC2)N(C(=O)[C@H](CCCC)CN(O)C=O)C1
MIC [1]: 8 µg/mL (≈ 21.8 µM)
MIC [2]: > 64 µg/mL
MIC [3]: 8 µg/mL (≈ 21.8 µM)
MIC [4]: 16 µg/mL (≈ 43.5 µM)

CCCC[C@H](CN(O)C=O)C(=O)N1CCC[C@H]1C(=O)Nc1ccc(F)c[n+]1[O-]
MIC [1]: 0.5 µg/mL (≈ 1.26 µM)
MIC [2]: 2 µg/mL (≈ 5.05 µM)
MIC [3]: 0.5 µg/mL (≈ 1.26 µM)
MIC [4]: 1 µg/mL (≈ 2.52 µM)
MIC [5]: 0.5 µg/mL (≈ 1.26 µM)
MIC [6]: 0.125 µg/mL (≈ 0.315 µM)
MIC [7]: 0.5 µg/mL (≈ 1.26 µM)
MIC [8]: 0.125 µg/mL (≈ 0.315 µM)
MIC [9]: 0.125 µg/mL (≈ 0.315 µM)
MIC [10]: 0.5 µg/mL (≈ 1.26 µM)
MIC [11]: 2 µg/mL (≈ 5.05 µM)

C=C1C[C@@H](C(=O)Nc2ncc(C)s2)N(C(=O)[C@H](CC2CCCC2)CN(O)C=O)C1
MIC [1]: 0.0625 µg/mL (≈ 0.149 µM)
MIC [2]: 0.5 µg/mL (≈ 1.19 µM)
MIC [3]: 0.0625 µg/mL (≈ 0.149 µM)
MIC [4]: 0.125 µg/mL (≈ 0.297 µM)
MIC [5]: 1 µg/mL (≈ 2.38 µM)
MIC [6]: 0.0625 µg/mL (≈ 0.149 µM)
MIC [7]: 1 µg/mL (≈ 2.38 µM)
MIC [8]: 0.5 µg/mL (≈ 1.19 µM)
MIC [9]: 0.25 µg/mL (≈ 0.594 µM)
MIC [10]: 0.25 µg/mL (≈ 0.594 µM)
MIC [11]: 1 µg/mL (≈ 2.38 µM)

CC1(C)S[C@@H]2[C@H](NC(=O)Cc3ccccc3)C(=O)N2[C@H]1C(=O)O [PENICILLIN G]
MIC [1]: 0.0625 µg/mL (≈ 0.187 µM)
MIC [2]: 1 µg/mL (≈ 2.99 µM)
MIC [3]: 64 µg/mL (≈ 191 µM)
MIC [4]: 2 µg/mL (≈ 5.98 µM)
MIC [5]: 0.5 µg/mL (≈ 1.5 µM)
MIC [6]: 64 µg/mL (≈ 191 µM)
MIC [7]: 4 µg/mL (≈ 12 µM)
MIC [8]: 64 µg/mL (≈ 191 µM)
MIC [9]: 2 µg/mL (≈ 5.98 µM)
MIC [10]: 64 µg/mL (≈ 191 µM)
MIC [11]: 16 µg/mL (≈ 47.8 µM)

C=C1C[C@@H](C(=O)Nc2ccc(F)c[n+]2[O-])N(C(=O)[C@H](CCCC)CN(O)C=O)C1
MIC [1]: 2 µg/mL (≈ 4.9 µM)
MIC [2]: 4 µg/mL (≈ 9.79 µM)
MIC [3]: 1 µg/mL (≈ 2.45 µM)
MIC [4]: 2 µg/mL (≈ 4.9 µM)

CC1(C)S[C@@H]2[C@H](NC(=O)[C@H](N)c3ccc(O)cc3)C(=O)N2[C@H]1C(=O)O [AMOXICILLIN]
MIC [12]: 0.125 µg/mL (≈ 0.342 µM)
MIC [13]: 64 µg/mL (≈ 175 µM)
MIC [14]: 0.5 µg/mL (≈ 1.37 µM)
MIC [15]: 16 µg/mL (≈ 43.8 µM)
MIC [16]: 0.25 µg/mL (≈ 0.684 µM)
MIC [17]: 32 µg/mL (≈ 87.6 µM)
MIC [18]: 64 µg/mL (≈ 175 µM)
MIC [19]: ≤ 0.06 µg/mL
MIC [20]: ≤ 0.06 µg/mL
MIC [21]: 2 µg/mL (≈ 5.47 µM)
MIC [22]: ≤ 0.06 µg/mL
MIC [23]: 1 µg/mL (≈ 2.74 µM)
MIC [24]: ≤ 0.06 µg/mL
MIC [25]: ≤ 0.06 µg/mL
